Among the data in ChEMBL document CHEMBL3507680, “University of Dundee, Gates Library screen for HepG2 cell viability” are cytotoxicity values, retold here.

The structures appear in SMILES notation.

This data set in a line: Human HepG2 cell viability assay in 384 well format. Format: toxicity, cell-based. The arrangement: dose 125 nL, time 70.5 hour; concentration not given beside the values. The following applies: HepG2 cells, read-out: Inhibition.
For the molecule `CCn1c(N)nc2cc(C(=O)N3CCN(CC(F)(F)F)CC3)cnc21`, the cytotoxicity at 70.5 h is -13%.
With `CC(C(=O)NCc1cccc(N2CCCC2=O)c1)S(C)(=O)=O` (stereo not given), the cytotoxicity at 70.5 h came to 0.0426%.
Consider `NCCC(=O)Nc1ccc(-c2ccccc2)cc1`, for which the cytotoxicity at 70.5 h was -5.02%.
On to `Cc1nccn1-c1ccc(NS(=O)(=O)c2cccnc2)cn1`, for which the cytotoxicity at 70.5 h was -1.79%.
As for `Cn1c(=O)oc2cc(Nc3nccnc3C#N)ccc21`, the cytotoxicity at 70.5 h is -2.2%.
Consider `CCCc1nccn1-c1ccc(C(C)O)cc1` (stereo not given), for which the cytotoxicity at 70.5 h is -5.9%.
Turning to `O=C(CCc1cccs1)N1CCc2[nH]nc(COc3ccccc3)c2C1`, the cytotoxicity at 70.5 h came out at 2.22%.
Take `Cn1c(=O)[nH]c2cc(C(=O)OCC(F)F)ccc21`: the cytotoxicity at 70.5 h was 19.9%.
As to `C1CCC(CSc2nnnn2C2CC2)OC1` (stereo not given), the cytotoxicity at 70.5 h is -0.703%.
With `O=C(O)C1(O)CCN(c2ccnc3c(C(F)(F)F)cccc23)CC1`, the cytotoxicity at 70.5 h was -25.6%.
On to `CCN1CCC2(CC1)CN(C(C)=O)c1ccc(C)cc12`, for which the cytotoxicity at 70.5 h is -7.76%.
For `CN1CCCc2cc(CNC(=O)c3ccncc3)ccc21`, the cytotoxicity at 70.5 h was 33.4%.
For the molecule `CCN1CCc2[nH]nc(C(=O)N3CCCC3C)c2C1` (stereo not given), the cytotoxicity at 70.5 h is 4.99%.
For `Cc1cc(C(O)CCNS(=O)(=O)c2ccc(Cl)s2)c(C)o1` (stereo not given), the cytotoxicity at 70.5 h was -15.4%.
To `Cc1cncc(NC(=O)c2ccc(CN3CCCC(C(N)=O)C3)cc2)c1` (stereo not given) belongs -0.673%; to `COCC(C)(CCO)NC(=O)Nc1c(F)cccc1Br` (stereo not given), 1.51%.
Under `Cc1ccc(OCC(=O)N2CCN[C@H]3CS(=O)(=O)C[C@H]32)cn1` stands -16.7%.
Take `CC(C)=CCN1CCN(C(=O)c2snnc2C)[C@H]2CS(=O)(=O)C[C@H]21`: the cytotoxicity at 70.5 h was -9.09%.
On to `CCC(CC)NC(=O)CN1CCSCC1`, for which the cytotoxicity at 70.5 h was found to be 3.72%.
Take `CC(C)NC(=O)[C@@H]1C[C@H]2OCC[C@H]2N(Cc2ccc3ccccc3n2)C1`: the cytotoxicity at 70.5 h is 12.8%.
To `COc1cccc(CN(C)CC(=O)NC2(C)CCS(=O)(=O)C2)c1` (stereo not given) belongs -15.4%; to `CN(Cc1noc(-c2ccccc2)n1)C(=O)CSc1nnc(N)s1`, 14.3%.
On to `CC(C)n1ccnc1CN1CCOC(C)(C(=O)N2CCOCC2)C1` (stereo not given), for which the cytotoxicity at 70.5 h is -5.02%.
For `CN(C)C1CCN(C(=O)c2cccc(S(=O)(=O)NCC3(C)COC3)c2)C1` (stereo not given), the cytotoxicity at 70.5 h was -9.11%.
Take `O=S(=O)(CCCN1CCc2c(ncn2C2CC2)C1)c1ccccc1`: the cytotoxicity at 70.5 h was determined as 1.18%.
On to `Cc1cc(=O)[nH]c(-n2nc(C3CC3)cc2N)n1`, for which the cytotoxicity at 70.5 h was 29.2%.
Under `c1ccc(-c2nnc(CNCC3CCCN3c3cccnn3)o2)cc1` (stereo not given) stands 7.04%.
Under `Cc1ccc(C(=O)N2CCCCC2CNC(N)=O)cc1F` (stereo not given) stands 0.819%; under `Cc1ccccc1Cn1nnc2cc3c(cc2c1=O)OCCO3`, -9.38%; under `CCOc1ncccc1NC(=O)NCC(O)c1ccc(OC)cc1` (stereo not given), 19.2%.
With `Cc1nc(C2CCCN(C(=O)c3cc(-c4ccccc4)[nH]n3)C2)no1` (stereo not given), the cytotoxicity at 70.5 h is -3.98%.
As for `CN(C)c1cccc(CNCc2ccc(N3CCOCC3)cc2)c1`, the cytotoxicity at 70.5 h stood at 14%.
Turning to `COC(=O)CCc1c(C)nn(-c2nc(C)cc(=O)[nH]2)c1C`, the cytotoxicity at 70.5 h is 36.4%.
Turning to `Cc1cc(NC(=O)C(C)Cn2cc(Br)cn2)no1` (stereo not given), the cytotoxicity at 70.5 h was found to be 1.29%.
For the molecule `CN(C)c1ncc(-c2cc(C(=O)O)n(CC3CC3)c2)cn1`, the cytotoxicity at 70.5 h is -4.19%.
Under `CC(=O)N1CCCC1c1nnn2cc(-c3ccncc3)ccc12` (stereo not given) stands -5.32%; under `O=C(NCc1cc[nH]n1)NCC(O)COc1cccc(F)c1` (stereo not given), 22.7%; under `CCN(CC(=O)NC)S(=O)(=O)N1CCCCC1`, -7.25%.
To `COc1cc2c(cc1CNC(=O)C(C)n1ccnc1C(C)C)OCCO2` (stereo not given) belongs -3.89%; to `Cn1cc(CN2CCC[C@]3(C(=O)O)CN(c4cnccn4)CC[C@@H]23)cn1`, -2.41%; to `Fc1cccc(CN2CCC[C@@H](Cn3nnc(-c4ccccn4)n3)C2)c1`, -5.77%.
In the case of `Cn1nccc1C(=O)N1Cc2ccccc2OC2(CCOCC2)C1`, the cytotoxicity at 70.5 h was 1.33%.
Under `CSc1ccccc1C(=O)Nc1ccc(OC2CCN(C)CC2)cc1` stands 17.4%; under `O=C(NCC1CCOC1)Nc1ccc(OCC(F)(F)F)nc1` (stereo not given), -10.7%.
For `CCn1cc(CN2CCCn3nc(CCC(=O)NCCO)cc3C2)cn1`, the cytotoxicity at 70.5 h is -3.88%.
Turning to `Cc1ccsc1C(=O)Nc1cc(Br)c(=O)n(C)c1`, the cytotoxicity at 70.5 h is -8.88%.
On to `O=C(Nc1ccc(-c2ccccc2)cc1)N1C[C@@H]2CNC[C@]2(C(=O)O)C1`, for which the cytotoxicity at 70.5 h was -9.81%.
To `CSCC(=O)N1CCC(c2nccn2Cc2cscn2)CC1` belongs -2.59%.
As to `O=C(CN1CCCCCC1)NCc1cccnc1Oc1ccccc1`, the cytotoxicity at 70.5 h was -2.72%.
For the molecule `CC(C(=O)N1CCc2sccc2C1)N1CCC(S(N)(=O)=O)CC1` (stereo not given), the cytotoxicity at 70.5 h was -4.51%.
On to `NCCO[C@H]1C[C@@H](O)C12CCN(C1Cc3ccccc3C1)CC2`, for which the cytotoxicity at 70.5 h stood at 34.2%.
As to `CC(C)c1nnsc1CNC(=O)C1CCN(C(=O)C2CC2)CC1`, the cytotoxicity at 70.5 h is 2.6%.
Take `O=C(NCC1CC1)[C@H]1CC[C@@H]2[C@@H](CCN2Cc2nccs2)O1`: the cytotoxicity at 70.5 h was 1.44%.
As to `CN(Cc1ccco1)C(=O)C1CSCN1C(=O)c1cccs1` (stereo not given), the cytotoxicity at 70.5 h was determined as 12.5%.
Regarding `O=S(=O)(NCCn1cc(C2CCOC2)nn1)c1ccc(Cl)cc1` (stereo not given), the cytotoxicity at 70.5 h is 17.5%.
For `CN(C)C(=O)CSc1nnc(CCNC(=O)OC(C)(C)C)o1`, the cytotoxicity at 70.5 h turned out to be 22.7%.
Take `C[C@H](O)CNc1cc(-c2cn[nH]c2)ncn1`: the cytotoxicity at 70.5 h came to 6.37%.
`NC(=O)CCNCc1c(Cl)cccc1N1CCCC1`: the cytotoxicity at 70.5 h was -6.13%.
Turning to `O=C(c1ccc(F)cc1)N1CC[C@H]2[C@H]1CCN2CC1CCOCC1`, the cytotoxicity at 70.5 h was -6.57%.
With `Cc1cc(CN2CCN(C(C)c3nc(C(C)C)no3)CC2)no1` (stereo not given), the cytotoxicity at 70.5 h was -7.52%.
Regarding `COCC1CCN(c2nc(C(C)(C)C)nc3c2cnn3C)C1` (stereo not given), the cytotoxicity at 70.5 h was found to be 15.8%.
For `CC(CC#N)NC(=O)c1cc(Br)c2c(c1)OCCO2` (stereo not given), the cytotoxicity at 70.5 h amounted to 0.544%.
Turning to `CC(=O)Nc1nc(C(=O)NCc2ccc(OC(C)C)nc2)cs1`, the cytotoxicity at 70.5 h is -5.15%.
With `O=C(c1ccc[nH]1)N1CCc2ccc(S(=O)(=O)N3CCOCC3)cc2C1`, the cytotoxicity at 70.5 h stood at 3.25%.
For the molecule `Cc1noc(C)c1CN1C[C@H](OCC(=O)N(C)C)[C@H]2COC[C@H]21`, the cytotoxicity at 70.5 h was -6.89%.
On to `CS(=O)(=O)N1CCCC12CCCN(C(=O)c1ccc[nH]1)C2` (stereo not given), for which the cytotoxicity at 70.5 h is 9.82%.
Under `Cc1nc(CN2CCOCC3(CCN(c4ncccn4)CC3)C2)cs1` stands -97.5%.
To `Cc1nc2ccccc2n1Cc1cc(C(=O)N2C[C@@H](C)O[C@@H](C)C2)no1` belongs -8.42%; to `CN(C)C(=O)N1CCC2(CCC(C(=O)N3CCCC3)O2)CC1` (stereo not given), -16.3%; to `Cc1nccc(CNS(=O)(=O)N2CCCC2c2ccc(C)o2)n1` (stereo not given), -9.86%.
